Measurements: patent US20230323414A1, “ENZYME DEHYDROXYLATING HYDROXYL GROUP AT 9-POSITION OF UROLITHIN COMPOUND” (DAICEL CORPORATION, priority 2020, published 2023)

Tested on: enzyme dehydroxylating the hydroxyl group at the 9-position of urolithins
Assay: Effect of cofactor on enzyme activity (DEAE fraction)
Type: biochemical, Clostridium bolteae JCM 12243 strain
Details: for Effect of cofactor on enzyme activity: cofactor individually added; for Relative activity: control without cofactor = 100%, DEAE fraction
Procedure: A 100 mM Gly/NaOH buffer (pH 9.5) containing 0.05 mg/mL of urolithin C, 5 mM of NADH, and 1 μM of DTT was mixed with a reaction solution for measuring the enzyme activity of each fraction corresponding to 40 mL of the medium to give a total volume of 500 μL, and the mixture was placed in a 1.5-mL tube. A gas phase in an anaerobic chamber was used as a gas phase (Vinyl Anaerobic Chamber available from Coy Labs), and the mixture was reacted at 45° C. for 13 to 18 hours. After completion of the reaction, 200 μL of N,N-dimethylacetamide containing 10% -formic acid was added and mixed. Then, the mixture was centrifuged (10,000 rpm. 4° C., 3 minutes), and the resulting supernatant was analyzed by HPLC.
Solutions were prepared to contain a cofactor in a concentration as shown in Table 2 in the reaction solution for measuring the enzyme activity described in Experimental Example 5, and urolithin A produced after the reaction was quantified. The DEAE fraction was used as the enzyme.
In addition, FAD refers to flavin adenine dinucleotide.

SMILES	Effect of cofactor on enzyme activity	Relative activity (one cofactor at 10 mM)	Relative activity (one cofactor at 0.2 mM)
NC(=O)C1=CN([C@@H]2O[C@H](COP(=O)(O)OP(=O)(O)OC[C@H]3O[C@@H](n4cnc5c(N)ncnc54)[C@H](O)[C@@H]3O)[C@@H](O)[C@H]2O)C=CC1 [No. 2, reduced nicotinamide adenine dinucleotide]	Increase in activity	186%	
NC(=O)C1=CN([C@@H]2O[C@H](COP(=O)(O)OP(=O)(O)OC[C@H]3O[C@@H](n4cnc5c(N)ncnc54)[C@H](OP(=O)(O)O)[C@@H]3O)[C@@H](O)[C@H]2O)C=CC1 [No. 3, reduced nicotinamide adenine dinucleotide phosphate]	Increase in activity	161%	
Cc1cc2nc3c(=O)[nH]c(=O)nc-3n(C[C@H](O)[C@H](O)[C@H](O)COP(=O)(O)OP(=O)(O)OC[C@H]3O[C@@H](n4cnc5c(N)ncnc54)[C@H](O)[C@@H]3O)c2cc1C [No. 4, flavin adenine dinucleotide]			95%
Cc1cc2nc3c(=O)[nH]c(=O)nc-3n(C[C@H](O)[C@H](O)[C@H](O)COP(=O)(O)O)c2cc1C [No. 5, flavin mononucleotide]			96%
